From patent US20170190671A1, “BIS(ARYL)CATECHOL DERIVATIVES AS HERBICIDES” (E I DU PONT DE NEMOURS AND COMPANY, priority 2014, published 2017)

Experiments:
Test in all cases: Test C preemergence
Assay type in all cases: in vivo
corn (Zea mays) = details: Zea mays, pre-emergence, 336 h, scale 0 to 100
Summary of the method: (§1)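 Steps: plant seeds in loam-sand soil and treat preemergence, or grow plants in peat-based medium to 2-18 cm and spray; compound formulated in non-phytotoxic solvent/surfactant; hold in greenhouse 13-15 days; score visually versus controls from 0 (no effect) to 100 (complete control).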

[1] = system: pigweed (Amaranthus retroflexus); details: Amaranthus retroflexus, pre-emergence, 336 h, scale 0 to 100, read-out: Plant response rating, Pigweed
Summary of the method: as §1

soybean (Glycine max) = details: Glycine max, pre-emergence, scale 0 to 100, read-out: Plant response rating, Soybean
Summary of the method: as §1

[2] = system: oilseed rape (Brassica napus); details: Brassica napus, pre-emergence, scale 0 to 100, read-out: Plant response rating, Oilseed Rape
Summary of the method: as §1

[3] = system: waterhemp (common waterhemp, Amaranthus rudis); details: Amaranthus tuberculatus, pre-emergence, scale 0 to 100, read-out: Plant response rating, Waterhemp
Summary of the method: as §1

[4] = system: velvetleaf (Abutilon theophrasti); details: Abutilon theophrasti, pre-emergence, scale 0 to 100, read-out: Plant response rating, Velvetleaf
Summary of the method: as §1

[5] = system: blackgrass (Alopecurus myosuroides); details: Alopecurus myosuroides, pre-emergence, 336 h, scale 0 to 100, read-out: Plant response rating, Blackgrass
Summary of the method: as §1

[6] = system: large (Lg) crabgrass (Digitaria sanguinalis); details: Digitaria sanguinalis, pre-emergence, 336 h, scale 0 to 100, read-out: Plant response rating, Crabgrass, Large
Summary of the method: as §1

[7] = system: giant foxtail (Setaria faberii); details: Setaria faberi, pre-emergence, 336 h, scale 0 to 100, read-out: Plant response rating, Foxtail, Giant
Summary of the method: as §1

[8] = system: Italian ryegrass (Lolium multiflorum); details: Lolium multiflorum, pre-emergence, 336 h, scale 0 to 100, read-out: Plant response rating, Ryegrass, Italian
Summary of the method: as §1

[9] = system: winter wheat (Triticum aestivum); details: Triticum aestivum, pre-emergence, 336 h, scale 0 to 100, read-out: Plant response rating, Wheat
Summary of the method: as §1

Fc1cccc(Oc2ncc(C(F)(F)F)cn2)c1Oc1ncc(Cl)cn1 [Compound 42, 5-chloro-2-[2-fluoro-6-[[5-(trifluoromethyl)-2-pyrimidinyl]oxy]phenoxy]pyrimidine]
Corn plant response rating (crop injury, 0 = no effect, 100 = complete kill) at 62 g/ha (corn (Zea mays); 62 g ai/ha, preemergence): 80% | Corn plant response rating (crop injury, 0 = no effect, 100 = complete kill) at 125 g/ha (corn (Zea mays); 125 g ai/ha, preemergence): 85% | Corn plant response rating (crop injury, 0 = no effect, 100 = complete kill) at 16 g/ha (corn (Zea mays); Preemergence, 16 g ai/ha): 0% | pest or weed control at 31 g/ha ([1]; 31 g ai/ha, preemergence): 100% | pest or weed control at 62 g/ha ([1]; 62 g ai/ha, preemergence): 100% | pest or weed control at 125 g/ha ([1]; 125 g ai/ha, preemergence): 100% | pest or weed control at 16 g/ha ([1]; Preemergence, 16 g ai/ha): 100% | plant injury at 31 g/ha (soybean (Glycine max); 31 g ai/ha, preemergence): 50% | plant injury at 62 g/ha (soybean (Glycine max); 62 g ai/ha, preemergence): 80% | plant injury at 125 g/ha (soybean (Glycine max); 125 g ai/ha, preemergence): 95% | plant injury at 16 g/ha (soybean (Glycine max); Preemergence, 16 g ai/ha): 25% | plant injury at 31 g/ha ([2]; 31 g ai/ha, preemergence): 100% | plant injury at 62 g/ha ([2]; 62 g ai/ha, preemergence): 100% | plant injury at 125 g/ha ([2]; 125 g ai/ha, preemergence): 100% | plant injury at 16 g/ha ([2]; Preemergence, 16 g ai/ha): 98% | pest or weed control at 31 g/ha ([3]; 31 g ai/ha, preemergence): 100% | pest or weed control at 62 g/ha ([3]; 62 g ai/ha, preemergence): 100% | pest or weed control at 125 g/ha ([3]; 125 g ai/ha, preemergence): 100% | pest or weed control at 16 g/ha ([3]; Preemergence, 16 g ai/ha): 95% | pest or weed control at 31 g/ha ([4]; 31 g ai/ha, preemergence): 100% | pest or weed control at 62 g/ha ([4]; 62 g ai/ha, preemergence): 100% | pest or weed control at 125 g/ha ([4]; 125 g ai/ha, preemergence): 100% | pest or weed control at 16 g/ha ([4]; Preemergence, 16 g ai/ha): 100% | pest or weed control at 31 g/ha ([5]; 31 g ai/ha, preemergence): 65% | pest or weed control at 62 g/ha ([5]; 62 g ai/ha, preemergence): 90% | pest or weed control at 125 g/ha ([5]; 125 g ai/ha, preemergence): 90% | pest or weed control at 16 g/ha ([5]; Preemergence, 16 g ai/ha): 35% | pest or weed control at 31 g/ha ([6]; 31 g ai/ha, preemergence): 100% | pest or weed control at 62 g/ha ([6]; 62 g ai/ha, preemergence): 100% | pest or weed control at 125 g/ha ([6]; 125 g ai/ha, preemergence): 100% | pest or weed control at 16 g/ha ([6]; Preemergence, 16 g ai/ha): 100% | pest or weed control at 31 g/ha ([7]; 31 g ai/ha, preemergence): 100% | pest or weed control at 62 g/ha ([7]; 62 g ai/ha, preemergence): 100% | pest or weed control at 125 g/ha ([7]; 125 g ai/ha, preemergence): 100% | pest or weed control at 16 g/ha ([7]; Preemergence, 16 g ai/ha): 85% | pest or weed control at 31 g/ha ([8]; 31 g ai/ha, preemergence): 70% | pest or weed control at 62 g/ha ([8]; 62 g ai/ha, preemergence): 80% | pest or weed control at 125 g/ha ([8]; 125 g ai/ha, preemergence): 95% | pest or weed control at 16 g/ha ([8]; Preemergence, 16 g ai/ha): 5% | plant injury at 31 g/ha ([9]; 31 g ai/ha, preemergence): 30% | plant injury at 62 g/ha ([9]; 62 g ai/ha, preemergence): 45% | plant injury at 125 g/ha ([9]; 125 g ai/ha, preemergence): 90% | plant injury at 16 g/ha ([9]; Preemergence, 16 g ai/ha): 0%
